The results in this text go back to PubChem BioAssay AID712 (Emory University Molecular Libraries Screening Center, 2007).

The assay deals with Heat shock protein HSP 90-alpha (Homo sapiens) (UniProt P07900). Kind of assay: Hsp90 blockade concentration-response – dose response (AID 712). The following applies: Hsp90 inhibition assay.

Activity calls are given as the source filed them. How the calls were made is not given here.

For `Cc1nc(SCC(=O)c2ccc(O)cc2O)n[nH]1`, the IC50 was > 50 µM (inactive). Turning to `CCc1cc(-c2[nH]ncc2-c2ccc3c(c2)OCO3)c(O)cc1O`, the IC50 is 1.97 µM. Regarding `O=C(COc1ccc(-c2ccccc2)cc1)N1CCN(C(=O)c2cccnc2)CC1`, the IC50 was > 50 µM (inactive). With `COc1cc(NS(=O)(=O)c2ccc(F)c(C#N)c2)c2ncccc2c1` the figure was > 50 µM (inactive). With `COC(=O)c1ccc2c(c1)SC1=C(CCCC1=O)N2` the figure was 10.9 µM; with `COc1ccc(-n2nc3c(c2NC(=O)c2ccc(Br)cc2)CS(=O)C3)cc1` (configuration not stated), > 50 µM (inactive); with `Cc1ccc(C(=O)O)cc1S(=O)(=O)NCC1CCCO1` (configuration not stated), > 50 µM (inactive). Take `CCn1c(CSc2nnc3ccccn23)nc2cc(C(=O)O)ccc21`: the IC50 was 1.11 µM. Regarding `O=C1C(c2nc3ccccc3s2)=C(O)c2ccccc21`, the IC50 was > 50 µM (inactive). With `COc1ccc(S(=O)(=O)Nc2ccc(O)c(-c3ccccc3O)c2)cc1OC` the figure was > 50 µM (inactive); with `CC(C)NCCCC(C)Nc1cc(O)cc2cccnc12` (configuration not stated), 1.56 µM. With `Nc1ccc(NS(=O)(=O)c2cc(Cl)ccc2Cl)cc1-c1ccccc1O`, the IC50 is > 50 µM (inactive). `CCSCCOC(=O)C1=C(C)NC(=O)NC1c1ccccc1` (configuration not stated): the IC50 is > 50 µM (inactive). In the case of `Nc1ccc(NS(=O)(=O)c2ccccc2N)cc1-c1ccccc1O`, the IC50 was > 50 µM (inactive). As for `O=C1NCCCC2c3cc(O)c4ccccc4c3OC12N1CCCCC1` (configuration not stated), the IC50 was 5.79 µM. `Cc1ccc(S(=O)(=O)Nc2cc(O)cc3cccnc23)cc1`: the IC50 was > 50 µM (inactive). Consider `COc1ccc(C(=O)c2c(C)n(C)c(=O)n(C)c2=O)cc1`, for which the IC50 is > 50 µM (inactive). For the compound `CC1=CC(C#N)(C#N)C(C#N)(C#N)C(c2ccccc2)N1` (configuration not stated), the 50% inhibitory concentration (IC50) was 7.38 µM. As to `Cc1nc(-c2c(-c3ccc(O)cc3O)noc2C(F)(F)F)cs1`, the half-inhibitory concentration (IC50) was 16.5 µM.

Take `O=S(=O)(c1cccc(-c2nnco2)c1)N1CCCC1`: the IC50 is > 50 µM (inactive). Consider `O=C1C(=Cc2ccccn2)CNCC1=Cc1ccccn1`, for which the IC50 was > 50 µM (inactive). The value for `COC(=O)C1=C(C)N(c2cccc3ccccc23)C(=O)C1` was > 50 µM (inactive); that for `CC(=O)Nc1cnc2ccccc2n1` was “inactive”; that for `COc1ccc2c(c1-c1cc(NS(=O)(=O)c3ccc(C)cc3)ccc1N)OCO2` was > 50 µM (inactive). The value for `CC(C)OC(=O)CSc1nc2ccccc2s1` was > 50 µM (inactive); that for `CC(CCN(C)C)Nc1cc(O)cc2cccnc12` (configuration not stated) was 1.56 µM. In the case of `O=[N+]([O-])c1cc(O)cc2cccnc12`, the IC50 is 1.56 µM. The value for `O=C1C2C3C=CC(C3)C2C(=O)N1CNc1ccc(O)cc1` (configuration not stated) was 14.7 µM; that for `Nc1cccc2cccnc12` was > 50 µM (inactive); that for `COc1ccccc1-c1nnc2n1N=C(c1ccc(O)c(O)c1)CS2` was 10.7 µM. With `Nc1ccc2[nH]ccc2c1`, the IC50 is > 50 µM (inactive). As to `O=C1c2ccccc2-c2onc3ccc(NCc4ccco4)c1c23`, the IC50 is below 1.56 µM. For the compound `O=C(O)c1ccc2c3c(ncnc13)-c1ccccc1C2=O`, the IC50 is 5.22 µM.

Turning to `CCCc1cc2c(cc1NS(=O)(=O)c1ccc(CCNC(C)=O)cc1)OCO2`, the IC50 is > 50 µM (inactive). Take `Cc1ccc(S(=O)(=O)Nc2ccc3oc(=O)sc3c2)c(C)c1`: the IC50 entry was “inactive”. The value for `COc1ccc2c(c1-c1cc(NS(=O)(=O)c3cccc([N+](=O)[O-])c3)ccc1N)OCO2` was > 50 µM (inactive).

Consider `N#Cc1ccc(CSc2nnc(Nc3ccccc3)s2)cc1`, for which the IC50 was > 50 µM (inactive). In the case of `Cc1c(N=c2c(=O)c3ccccc3c2=O)c(=O)n(-c2ccccc2)n1C`, the IC50 is 20.6 µM. As for `Cc1ccc(CNc2ccc(O)cc2)cc1`, the IC50 result is “inactive”. As to `COc1cc(C2CC(c3ccccc3O)=NN2)ccc1O` (configuration not stated), the IC50 was > 50 µM (inactive). As to `COc1ccc2c(c1-c1cc(NS(=O)(=O)c3cccc(N)c3)ccc1N)OCO2`, the IC50 was > 50 µM (inactive).

Turning to `CCc1cc(C(=O)Cn2cnc3ccccc32)c(O)cc1O`, the IC50 was > 50 µM (inactive). For the compound `Cc1cc(=O)oc2c(N)c(OCc3ccccc3)ccc12`, the IC50 was > 50 µM (inactive). On to `CC(=O)c1cccc(NC(=O)CSc2nnc(-c3ccc(S(=O)(=O)N4CCCC4)cc3)o2)c1`, for which the IC50 was > 50 µM (inactive).

For the compound `COc1cc(NCCCC(C)N)c2ncccc2c1` (configuration not stated), the IC50 was > 50 µM (inactive).

As for `O=C(NCCCn1ccnc1)c1noc2c1CCc1ccccc1-2`, the half-maximal inhibitory concentration (IC50) was 13.5 µM. Regarding `CN(C)[C@@H]1C(=O)C(C(N)=O)=C(O)[C@@]2(O)C(=O)C3=C(O)c4c(O)cccc4[C@@](C)(O)[C@H]3C[C@@H]12`, the half-maximal inhibitory concentration (IC50) is 22.4 µM. Consider `O=C1C(c2cnc3ccccc3n2)=C(O)c2ccccc21`, for which the 50% inhibitory concentration (IC50) was 20 µM. Turning to `Nc1ccc2ncccc2c1N`, the IC50 is 3.38 µM.

Take `COc1cccc(C(=O)NC2CC3CCCC(C2)N3CC(=O)Nc2ccccc2)c1` (configuration not stated): the IC50 was 15.7 µM. For `O=C(O)c1ccccc1C1=Nc2ccc(O)cc2Oc2cc(O)ccc21`, the IC50 was 13 µM. `CCSc1nnc2c(n1)OC(c1ccc(C(=O)O)cc1)N(C(C)=O)c1ccccc1-2` (configuration not stated): the IC50 is > 50 µM (inactive). Regarding `O=S(=O)(Nc1cc(OCc2ccccc2)cc2cccnc12)c1ccc(F)cc1`, the IC50 is > 50 µM (inactive). As for `COC(=O)c1cc(=O)[nH]c2ccc(C)cc12`, the IC50 was > 50 µM (inactive).

For the compound `O=S(=O)(Nc1ccc(O)c(-c2ccccc2O)c1)c1cc(Cl)ccc1Cl`, the IC50 was > 50 µM (inactive). As for `CCCCn1c(NC(=O)c2ccco2)c(C(=O)OCC)c2nc3ccccc3nc21`, the IC50 is > 50 µM (inactive). The value for `Nc1ccc(NS(=O)(=O)c2cccc([N+](=O)[O-])c2)cc1-c1ccccc1O` was > 50 µM (inactive).
